Laboratory results published in PMC7960226 (Science (New York, N.Y.), 2020).
Peptide text beside a SMILES is read from it.

Columns and labels:
[1] = Madin-Darby canine kidney permeability assay; details: dog, MDCK
[2] = molecular target: TBXA2R (Homo sapiens, UniProt P21731); test: safety panel assay, TBXA2R; assay type: binding
[3] = molecular target: T1, CHRM1 (Homo sapiens, UniProt P11229)
T1 sequence (P11229 1-460): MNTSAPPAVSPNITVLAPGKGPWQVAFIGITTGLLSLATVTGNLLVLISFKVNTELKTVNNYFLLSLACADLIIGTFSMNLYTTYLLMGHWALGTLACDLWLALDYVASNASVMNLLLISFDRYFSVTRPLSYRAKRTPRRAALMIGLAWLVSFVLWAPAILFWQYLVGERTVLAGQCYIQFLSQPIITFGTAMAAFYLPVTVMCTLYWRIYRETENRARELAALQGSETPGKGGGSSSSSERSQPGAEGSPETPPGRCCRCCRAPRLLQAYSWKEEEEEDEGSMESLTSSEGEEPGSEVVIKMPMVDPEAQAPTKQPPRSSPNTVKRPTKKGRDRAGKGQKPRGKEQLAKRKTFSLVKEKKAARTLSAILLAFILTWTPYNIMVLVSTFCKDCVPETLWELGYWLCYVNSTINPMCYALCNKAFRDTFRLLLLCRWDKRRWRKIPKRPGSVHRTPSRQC

[4] = molecular target: T2, ADRA1A (Homo sapiens, UniProt P35348); details: Table 2, ADRA1A; accurate to ±20%
T2 sequence (P35348 1-466): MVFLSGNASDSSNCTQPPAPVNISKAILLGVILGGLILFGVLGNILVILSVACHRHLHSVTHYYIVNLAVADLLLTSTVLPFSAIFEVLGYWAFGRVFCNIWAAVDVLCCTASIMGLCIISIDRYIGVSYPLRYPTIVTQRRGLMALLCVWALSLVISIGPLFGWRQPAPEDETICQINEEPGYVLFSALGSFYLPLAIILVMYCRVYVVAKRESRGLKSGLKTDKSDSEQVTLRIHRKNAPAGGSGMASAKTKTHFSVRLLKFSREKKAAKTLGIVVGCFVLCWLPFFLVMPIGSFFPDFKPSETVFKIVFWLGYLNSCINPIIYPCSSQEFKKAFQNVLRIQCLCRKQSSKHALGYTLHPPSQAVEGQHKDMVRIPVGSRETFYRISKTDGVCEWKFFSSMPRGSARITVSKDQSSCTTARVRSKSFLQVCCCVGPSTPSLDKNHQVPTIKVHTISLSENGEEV

[5] = molecular target: SCN5A (Homo sapiens, UniProt Q14524); details: Table 2, SCN5A; accurate to ±20%
[6] = molecular target: T3, SLCO2B1 (Homo sapiens, UniProt O94956); test: in vitro transporter inhibition, SLCO2B1; assay type: biochemical
T3 sequence (O94956 1-709): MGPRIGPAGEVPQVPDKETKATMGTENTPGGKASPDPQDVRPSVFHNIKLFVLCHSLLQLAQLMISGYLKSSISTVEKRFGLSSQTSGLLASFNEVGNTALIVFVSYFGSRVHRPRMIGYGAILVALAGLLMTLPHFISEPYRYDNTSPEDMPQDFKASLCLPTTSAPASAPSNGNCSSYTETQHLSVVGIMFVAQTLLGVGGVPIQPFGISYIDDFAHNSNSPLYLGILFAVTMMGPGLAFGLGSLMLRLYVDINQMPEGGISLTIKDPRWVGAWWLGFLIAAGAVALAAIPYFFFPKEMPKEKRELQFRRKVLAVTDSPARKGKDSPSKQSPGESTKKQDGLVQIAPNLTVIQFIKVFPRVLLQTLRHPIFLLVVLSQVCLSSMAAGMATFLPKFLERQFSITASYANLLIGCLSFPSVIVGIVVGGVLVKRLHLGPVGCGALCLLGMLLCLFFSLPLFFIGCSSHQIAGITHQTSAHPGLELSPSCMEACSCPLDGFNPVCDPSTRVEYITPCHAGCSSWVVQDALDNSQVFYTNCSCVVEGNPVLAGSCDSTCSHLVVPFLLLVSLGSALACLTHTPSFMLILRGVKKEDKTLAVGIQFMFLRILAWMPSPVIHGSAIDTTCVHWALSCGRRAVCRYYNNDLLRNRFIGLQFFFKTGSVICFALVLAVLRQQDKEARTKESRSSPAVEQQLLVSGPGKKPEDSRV

[7] = molecular target: SLC18A2 (Homo sapiens, UniProt Q05940); test: transporter inhibition, SLC18A2; assay type: biochemical; details: Table 2, SLC18A2; accurate to ±20%
[8] = molecular target: SLC6A3 (Homo sapiens, UniProt Q01959); test: safety panel assay, SLC6A3; assay type: biochemical; details: Table 2, SLC6A3; accurate to ±20%
[9] = molecular target: SLC6A2 (Homo sapiens, UniProt P23975); details: Table 2, SLC6A2; accurate to ±20%
[10] = tested on: BioMAP Diversity PLUS panel; test: BioMAP Diversity PLUS panel of cell-based systems
[11] = Pharmacokinetics in rats after i.v. and oral administration; details: rat
[12] = molecular target: NR1I2 (Homo sapiens, UniProt O75469); test: safety panel assay, NR1I2; assay type: binding; details: Table 2, NR1I2; accurate to ±20%
[13] = molecular target: ABCB11 (Homo sapiens, UniProt O95342); test: transporter inhibition, ABCB11; assay type: biochemical; details: Table 2, ABCB11; accurate to ±20%
[14] = molecular target: DRD3 (Homo sapiens, UniProt P35462); details: Table 2, DRD3; accurate to ±20%
[15] = molecular target: PRG (Homo sapiens, UniProt P06401); details: Table 2, PRG; accurate to ±20%
[16] = molecular target: PDE4D (Homo sapiens, UniProt Q08499); test: in vitro assay, PDE4D; assay type: biochemical; details: Table 2, PDE4D; accurate to ±20%
[17] = molecular target: HTR1A (Homo sapiens, UniProt P08908); test: safety panel assay, HTR1A; assay type: binding; details: Table 2, HTR1A; accurate to ±20%
[18] = molecular target: ADORA3 (Homo sapiens, UniProt P0DMS8); details: Table 2, ADORA3; accurate to ±20%
[19] = molecular target: T4, SLCO1B1 (Homo sapiens, UniProt Q9Y6L6); test: in vitro transporter assay, SLCO1B1; details: Table 1, predicted target SLCO1B1
T4 sequence (Q9Y6L6 1-691): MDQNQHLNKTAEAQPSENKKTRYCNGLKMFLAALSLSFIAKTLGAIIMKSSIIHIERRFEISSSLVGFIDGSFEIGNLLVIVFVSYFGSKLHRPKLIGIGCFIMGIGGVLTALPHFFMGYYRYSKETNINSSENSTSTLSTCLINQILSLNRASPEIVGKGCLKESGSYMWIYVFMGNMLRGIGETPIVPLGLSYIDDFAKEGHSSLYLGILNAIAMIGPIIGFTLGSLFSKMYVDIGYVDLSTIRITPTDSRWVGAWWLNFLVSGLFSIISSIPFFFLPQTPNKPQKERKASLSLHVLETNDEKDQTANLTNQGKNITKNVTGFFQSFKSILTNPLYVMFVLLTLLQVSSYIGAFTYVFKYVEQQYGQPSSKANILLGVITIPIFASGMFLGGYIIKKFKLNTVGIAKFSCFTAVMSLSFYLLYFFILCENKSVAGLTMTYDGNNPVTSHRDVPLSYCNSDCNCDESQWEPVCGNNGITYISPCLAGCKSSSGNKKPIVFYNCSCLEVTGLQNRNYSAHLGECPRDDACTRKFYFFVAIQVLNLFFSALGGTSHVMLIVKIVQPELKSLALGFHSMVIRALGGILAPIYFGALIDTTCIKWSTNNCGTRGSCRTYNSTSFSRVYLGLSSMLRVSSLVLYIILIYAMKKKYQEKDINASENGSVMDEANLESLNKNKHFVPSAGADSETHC

[20] = molecular target: PRMT1 (Homo sapiens, UniProt Q99873); details: Table 1, predicted target PRMT1
[21] = molecular target: ACHE (Homo sapiens, UniProt P22303); details: Table 2, ACHE; accurate to ±20%
[22] = rat, in vivo, 1 mg/kg
[23] = molecular target: PDE3A (Homo sapiens, UniProt Q14432); test: safety panel assay, PDE3A; assay type: biochemical
[24] = not given; remark: listed apart in the source

Chain of PDE3A (Q14432 whole entry, species assumed): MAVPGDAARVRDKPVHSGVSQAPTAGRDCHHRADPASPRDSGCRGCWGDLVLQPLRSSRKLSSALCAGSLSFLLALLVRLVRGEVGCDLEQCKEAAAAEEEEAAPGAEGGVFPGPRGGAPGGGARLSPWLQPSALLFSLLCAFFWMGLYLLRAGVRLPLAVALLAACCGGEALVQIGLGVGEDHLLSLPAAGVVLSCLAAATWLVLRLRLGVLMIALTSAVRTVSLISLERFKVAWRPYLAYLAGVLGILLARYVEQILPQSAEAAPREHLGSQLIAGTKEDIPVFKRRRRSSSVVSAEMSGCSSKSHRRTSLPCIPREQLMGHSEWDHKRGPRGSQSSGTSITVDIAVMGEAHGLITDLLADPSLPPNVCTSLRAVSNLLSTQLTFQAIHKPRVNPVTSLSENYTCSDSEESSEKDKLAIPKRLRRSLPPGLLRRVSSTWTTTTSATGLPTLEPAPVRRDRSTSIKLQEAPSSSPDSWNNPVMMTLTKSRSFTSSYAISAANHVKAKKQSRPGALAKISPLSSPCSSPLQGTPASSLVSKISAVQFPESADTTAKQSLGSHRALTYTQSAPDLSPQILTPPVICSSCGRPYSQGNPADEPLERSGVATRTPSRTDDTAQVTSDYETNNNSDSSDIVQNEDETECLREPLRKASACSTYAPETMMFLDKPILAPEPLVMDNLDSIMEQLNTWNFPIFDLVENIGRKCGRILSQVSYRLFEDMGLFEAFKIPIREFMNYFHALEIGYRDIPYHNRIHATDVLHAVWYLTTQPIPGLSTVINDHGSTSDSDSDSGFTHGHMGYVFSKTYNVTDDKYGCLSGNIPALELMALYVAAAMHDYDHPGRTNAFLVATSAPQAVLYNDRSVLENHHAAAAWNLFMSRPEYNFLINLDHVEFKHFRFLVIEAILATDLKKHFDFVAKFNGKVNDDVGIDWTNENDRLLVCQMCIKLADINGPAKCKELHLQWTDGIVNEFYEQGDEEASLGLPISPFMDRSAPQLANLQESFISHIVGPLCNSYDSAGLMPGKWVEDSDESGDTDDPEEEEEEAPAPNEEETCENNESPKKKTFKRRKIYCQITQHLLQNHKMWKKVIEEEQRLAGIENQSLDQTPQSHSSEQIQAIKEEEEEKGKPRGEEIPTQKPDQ
Chain of PDE4D (Q08499 whole entry): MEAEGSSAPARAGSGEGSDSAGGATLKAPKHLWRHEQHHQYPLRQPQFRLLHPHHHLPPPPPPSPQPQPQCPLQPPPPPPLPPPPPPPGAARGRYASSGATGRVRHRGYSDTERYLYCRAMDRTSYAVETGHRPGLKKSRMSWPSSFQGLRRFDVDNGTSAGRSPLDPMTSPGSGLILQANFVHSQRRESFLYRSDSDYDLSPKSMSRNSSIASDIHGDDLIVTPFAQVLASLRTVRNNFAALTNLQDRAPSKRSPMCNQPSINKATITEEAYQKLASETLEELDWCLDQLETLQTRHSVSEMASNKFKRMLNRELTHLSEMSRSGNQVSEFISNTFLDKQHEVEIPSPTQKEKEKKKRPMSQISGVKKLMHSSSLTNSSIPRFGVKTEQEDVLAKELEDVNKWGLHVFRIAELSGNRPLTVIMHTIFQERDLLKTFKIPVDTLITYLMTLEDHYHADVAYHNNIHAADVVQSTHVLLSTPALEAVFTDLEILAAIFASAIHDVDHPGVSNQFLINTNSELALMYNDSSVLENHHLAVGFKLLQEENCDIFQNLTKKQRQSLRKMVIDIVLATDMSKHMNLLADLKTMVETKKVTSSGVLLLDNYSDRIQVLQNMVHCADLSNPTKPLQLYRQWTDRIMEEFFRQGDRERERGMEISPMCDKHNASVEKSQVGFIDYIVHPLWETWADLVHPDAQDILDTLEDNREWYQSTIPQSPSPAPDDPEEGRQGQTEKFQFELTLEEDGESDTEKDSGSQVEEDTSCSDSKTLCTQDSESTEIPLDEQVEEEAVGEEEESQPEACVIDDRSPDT
Chain of SLC18A2 (Q05940 whole entry, species assumed): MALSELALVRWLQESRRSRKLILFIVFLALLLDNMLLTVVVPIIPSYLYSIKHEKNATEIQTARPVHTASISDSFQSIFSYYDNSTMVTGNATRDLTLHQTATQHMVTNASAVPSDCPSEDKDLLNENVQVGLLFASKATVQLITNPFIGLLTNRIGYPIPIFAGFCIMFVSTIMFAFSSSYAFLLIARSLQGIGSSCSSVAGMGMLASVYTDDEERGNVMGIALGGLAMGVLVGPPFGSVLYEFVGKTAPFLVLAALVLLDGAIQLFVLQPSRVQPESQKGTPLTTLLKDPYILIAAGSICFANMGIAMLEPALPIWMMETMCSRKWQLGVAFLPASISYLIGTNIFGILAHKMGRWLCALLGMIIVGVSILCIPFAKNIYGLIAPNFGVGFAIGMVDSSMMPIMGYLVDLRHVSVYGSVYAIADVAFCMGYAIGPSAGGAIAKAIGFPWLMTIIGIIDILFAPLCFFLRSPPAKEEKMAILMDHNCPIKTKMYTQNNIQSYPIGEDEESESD
Chain of TBXA2R (P21731 whole entry, species assumed): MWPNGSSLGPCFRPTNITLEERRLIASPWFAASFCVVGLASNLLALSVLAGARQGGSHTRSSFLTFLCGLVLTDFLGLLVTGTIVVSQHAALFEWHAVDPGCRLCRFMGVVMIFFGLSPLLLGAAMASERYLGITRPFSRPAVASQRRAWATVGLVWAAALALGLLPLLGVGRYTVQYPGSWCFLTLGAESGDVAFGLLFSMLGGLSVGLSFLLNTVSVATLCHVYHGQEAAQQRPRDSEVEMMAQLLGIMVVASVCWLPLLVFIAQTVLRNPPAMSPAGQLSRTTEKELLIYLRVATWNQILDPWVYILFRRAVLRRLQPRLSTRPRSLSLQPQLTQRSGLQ
Chain of NR1I2 (O75469 whole entry, species assumed): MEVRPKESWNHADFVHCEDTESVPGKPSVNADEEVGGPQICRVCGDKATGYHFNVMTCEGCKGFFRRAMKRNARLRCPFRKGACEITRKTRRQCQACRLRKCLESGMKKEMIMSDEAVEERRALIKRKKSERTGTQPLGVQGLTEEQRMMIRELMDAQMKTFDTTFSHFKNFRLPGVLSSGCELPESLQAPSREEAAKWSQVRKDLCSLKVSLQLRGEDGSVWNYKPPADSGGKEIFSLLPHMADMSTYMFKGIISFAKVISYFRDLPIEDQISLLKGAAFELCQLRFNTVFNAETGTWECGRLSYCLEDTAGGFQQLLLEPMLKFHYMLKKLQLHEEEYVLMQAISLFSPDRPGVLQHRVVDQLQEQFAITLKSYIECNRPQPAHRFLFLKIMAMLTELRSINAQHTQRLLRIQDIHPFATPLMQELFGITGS
Chain of PRMT1 (Q99873 whole entry): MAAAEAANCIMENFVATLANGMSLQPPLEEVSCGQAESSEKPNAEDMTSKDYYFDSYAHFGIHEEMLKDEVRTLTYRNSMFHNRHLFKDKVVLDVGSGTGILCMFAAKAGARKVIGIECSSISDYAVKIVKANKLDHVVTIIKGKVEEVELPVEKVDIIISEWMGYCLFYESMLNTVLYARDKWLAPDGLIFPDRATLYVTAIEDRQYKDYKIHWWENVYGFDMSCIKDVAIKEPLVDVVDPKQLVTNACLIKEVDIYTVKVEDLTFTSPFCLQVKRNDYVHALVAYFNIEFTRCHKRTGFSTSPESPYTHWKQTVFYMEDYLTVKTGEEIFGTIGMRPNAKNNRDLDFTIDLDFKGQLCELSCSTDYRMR
Chain of PRG (P06401 whole entry): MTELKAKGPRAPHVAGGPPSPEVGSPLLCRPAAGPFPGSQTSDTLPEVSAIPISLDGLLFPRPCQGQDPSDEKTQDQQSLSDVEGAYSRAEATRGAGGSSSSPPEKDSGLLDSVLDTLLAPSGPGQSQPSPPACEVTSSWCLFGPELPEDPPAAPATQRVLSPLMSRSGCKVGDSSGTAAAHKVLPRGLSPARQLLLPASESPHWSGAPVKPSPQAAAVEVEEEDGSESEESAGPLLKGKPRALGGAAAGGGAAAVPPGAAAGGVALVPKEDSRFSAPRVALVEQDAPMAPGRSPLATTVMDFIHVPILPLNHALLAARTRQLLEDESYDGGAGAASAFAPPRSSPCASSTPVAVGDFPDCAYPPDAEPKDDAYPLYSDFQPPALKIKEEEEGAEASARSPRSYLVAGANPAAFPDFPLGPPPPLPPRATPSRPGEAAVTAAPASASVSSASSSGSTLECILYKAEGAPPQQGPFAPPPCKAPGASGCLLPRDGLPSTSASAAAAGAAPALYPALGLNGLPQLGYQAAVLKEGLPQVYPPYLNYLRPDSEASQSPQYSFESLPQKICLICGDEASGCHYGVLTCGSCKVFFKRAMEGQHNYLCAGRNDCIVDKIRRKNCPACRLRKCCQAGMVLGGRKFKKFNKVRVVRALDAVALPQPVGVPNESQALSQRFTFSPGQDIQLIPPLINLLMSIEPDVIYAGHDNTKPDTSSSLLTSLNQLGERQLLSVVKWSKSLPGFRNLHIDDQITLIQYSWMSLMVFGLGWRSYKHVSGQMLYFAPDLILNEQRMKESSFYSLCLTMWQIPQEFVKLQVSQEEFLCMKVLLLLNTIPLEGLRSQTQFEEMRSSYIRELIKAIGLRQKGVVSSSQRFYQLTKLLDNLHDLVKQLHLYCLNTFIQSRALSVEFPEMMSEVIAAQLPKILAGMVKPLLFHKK
Chain of ADORA3 (P0DMS8 whole entry, species assumed): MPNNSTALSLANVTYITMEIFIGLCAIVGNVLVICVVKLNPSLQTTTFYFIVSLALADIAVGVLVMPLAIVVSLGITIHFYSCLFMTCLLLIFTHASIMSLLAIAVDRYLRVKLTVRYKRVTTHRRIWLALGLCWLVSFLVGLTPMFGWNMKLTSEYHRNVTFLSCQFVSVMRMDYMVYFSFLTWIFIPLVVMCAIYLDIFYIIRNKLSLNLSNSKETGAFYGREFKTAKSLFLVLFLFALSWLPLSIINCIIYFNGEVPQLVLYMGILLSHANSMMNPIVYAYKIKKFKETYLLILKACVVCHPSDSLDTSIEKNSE

CCCCOC(=O)c1ccc(O)cc1 [Butylparaben]
Papp [1]: 8.3 ×10⁻⁶ cm/s | IC50 [2]: 19 µM | Ki/IC50 Or EC50 ([2]; Table 2, TBXA2R, accurate to ±20%): 19 µM | Ki/IC50 ([3]; Table 1, predicted target CHRM1): 12 µM | Ki/IC50 Or EC50 [4]: 16 µM | Ki/IC50 Or EC50 [5]: 33 µM | Ki/IC50 Or EC50 ([6]; Table 2, SLCO2B1, accurate to ±20%): 39 µM | Ki/IC50 Or EC50 [7]: 6.6 µM | Ki/IC50 Or EC50 [8]: 18 µM | Ki/IC50 Or EC50 [9]: 20 µM | MCP-1 (CCL2) and sPGE2 levels ([10]; peripheral blood mononuclear cells and venular endothelial cells): dose-dependently decreased | concentrations in the blood ([11]; dosed at 10 mg/kg oral): negligible concentrations in the blood | Cmax ([11]; in vivo, po, 10 mg/kg): < 2.6 nM

COC(=O)[C@H](Cc1ccccc1)NC(=O)[C@@H](N)CC(=O)O [Aspartame] (HELM PEPTIDE1{D.F.[CO[*:1]]}$$$$V2.0)
Ki/IC50 Or EC50 [12]: 13 µM | activity in the BioMAP cell-based systems ([10]; 1.1, 3.3, 10, 30 μM): no measurable activity

O=C(O)c1ccccc1 [Benzoic acid]
Ki/IC50 Or EC50 [13]: 260 µM | Ki/IC50 Or EC50 [7]: 18 µM

CCCCCCCCCCCCOS(=O)(=O)[O-].[Na+] [Sodium lauryl sulfate]
Ki/IC50 Or EC50 [14]: 18 µM | Ki/IC50 Or EC50 ([3]; Table 2, CHRM1, accurate to ±20%): 29 µM | Ki/IC50 Or EC50 [4]: 15 µM | Ki/IC50 Or EC50 [15]: 15 µM | Ki/IC50 ([6]; Table 1, predicted target SLCO2B1): 2.8 µM | Ki/IC50 Or EC50 [16]: 23 µM | Ki/IC50 Or EC50 [17]: 15 µM | Ki/IC50 Or EC50 [18]: 15 µM | Ki/IC50 [19]: 2.9 µM

FD&C Red No. 3
Ki/IC50 [20]: 0.46 µM | Ki/IC50 Or EC50 [21]: 0.42 µM | %F [22]: 0.7% | Ki/IC50 Or EC50 ([23]; Table 2, PDE3A, accurate to ±20%): 0.092 µM | IC50 ([23]; Table 4, target PDE3A): 0.092 µM | Ki/IC50 Or EC50 [16]: 0.32 µM | plasma protein binding: 99% | MDCK-LE Papp [24]: <0.5 ×10⁻⁶ cm/s
